From publication PMC5601625, “Defining a therapeutic window for kinase inhibitors in leukemia to avoid neutropenia” (Oncotarget, 2017)
Entries after “also recorded” stand apart in the source; their conditions may differ. Read-outs that look alike come from different tables or passages of the source.

Tests used:
Assay in all cases: Cell Titer Glo cell viability assay, 48 h
Format in all cases: cell-based, human
[1] = tested on: MOLT4; conditions: 48 h, mean of 2 independent experiments, 0 = less than 10 nM, cell line not given, read-out: IC50 of inhibitors on cell lines, m (mean)
Procedure: (§1) The activity of the kinase inhibitor collection against a panel of human leukemia cell lines was determined in cell viability assays run over 48 h using the Cell Titer Glo reagent.
(§2) Figure 1 Effects of kinase inhibition on the proliferation of leukemia cells A. Human leukemia cell lines were treated with duplicate serial dilutions of kinase inhibitors and the effect on cell viability was determined by Cell Titer Glo assay after 48 hours. […] HL-60 cells were treated with serial dilutions of mTor/PI3K B. and MEK C. inhibitors and the effect on cell viability was determined after 48 hours. Data shown is the mean ± SEM of 3 independent experiments.
(§3) Leukemia and lymphoma cell lines were grown in RPMI containing 10% FCS. […] Cell lines are routinely tested for mycoplasma and genotyped by short tandem repeating (STR) profiling to confirm identity.
(§4) Compounds were obtained from SynMedChem and dissolved at […] in DMSO. Serial 2-fold dilutions of each compound were prepared in DMSO using a liquid handling robot (Janus, Perkin Elmer). Each dilution (100nL) was transferred to duplicate tissue culture plates containing 50 μL of media containing 5 × 10^3 cells using a 384 well pin tool. Cells were incubated for 48 h and cell viability was determined using Cell Titer Glow reagents as described by the manufacturer (Promega). Data was acquired using a luminescent plate reader (Envision, Perkin Elmer) and analysed using Activity Base (IDBS, Guilford, UK) and visualised using Spotfire (TIBCO, Palo Alto, CA) as described previously. Each cell line was assayed in independent experiments on at least two occasions. […] Serial 2-fold dilutions of each compound were prepared in media containing 0.2% DMSO and 50 μl of each dilution was added to 10^4 cells in 50 μl of media. Cells were incubated for 48 h and cell viability was determined using Cell Titer Glow assay as described above.

[2] = tested on: EOL-1; conditions: 48 h, mean of 2 independent experiments, 0 = less than 10 nM, cell line not given, read-out: IC50 of inhibitors on cell lines, m (mean)
Procedure: as §1, §2, §3, §4

[3] = tested on: KU-812; conditions: 48 h, mean of 2 independent experiments, 0 = less than 10 nM, cell line not given, read-out: IC50 of inhibitors on cell lines, m (mean)
Procedure: as §1, §2, §3, §4

[4] = tested on: HL-60; conditions: 48 h; for IC50: mean of 2 independent experiments, 0 = less than 10 nM, cell line not given, read-out: IC50 of inhibitors on cell lines, m (mean); for anti-proliferative activity in HL-60 cells: dose-response, Cell Titer Glo
Procedure: as §1, §2, §3, §4

[5] = tested on: HEL.92.1.7; conditions: 48 h, mean of 2 independent experiments, 0 = less than 10 nM, cell line not given, read-out: IC50 of inhibitors on cell lines, m (mean)
Procedure: as §1, §2, §3, §4

[6] = tested on: K562; conditions: 48 h, mean of 2 independent experiments, 0 = less than 10 nM, cell line not given, read-out: IC50 of inhibitors on cell lines, m (mean)
Procedure: as §1, §2, §3, §4

[7] = tested on: THP-1; conditions: 48 h, mean of 2 independent experiments, 0 = less than 10 nM, cell line not given, read-out: IC50 of inhibitors on cell lines, m (mean)
Procedure: as §1, §2, §3, §4

[8] = tested on: JURKAT; conditions: 48 h, mean of 2 independent experiments, 0 = less than 10 nM, cell line not given, read-out: IC50 of inhibitors on cell lines, m (mean)
Procedure: as §1, §2, §3, §4

[9] = tested on: MV4;11; conditions: 48 h, mean of 2 independent experiments, 0 = less than 10 nM, cell line not given, read-out: IC50 of inhibitors on cell lines, m (mean)
Procedure: as §1, §2, §3, §4

[10] = tested on: OCI-AML3; conditions: 48 h, mean of 2 independent experiments, 0 = less than 10 nM, cell line not given, read-out: IC50 of inhibitors on cell lines, m (mean)
Procedure: as §1, §2, §3, §4

[11] = tested on: MEG-01; conditions: 48 h, mean of 2 independent experiments, 0 = less than 10 nM, cell line not given, read-out: IC50 of inhibitors on cell lines, m (mean)
Procedure: as §1, §2, §3, §4

[12] = tested on: U937; conditions: 48 h, mean of 2 independent experiments, 0 = less than 10 nM, cell line not given, read-out: IC50 of inhibitors on cell lines, m (mean)
Procedure: as §1, §2, §3, §4

Compound | IC50 ([1]; Homo sapiens, MOLT-4) | IC50 ([2]; Homo sapiens, EOL1) | IC50 ([3]; Homo sapiens, KU812) | IC50 ([4]; Homo sapiens) | IC50 ([5]; Homo sapiens) | IC50 ([6]; Homo sapiens) | IC50 ([7]; Homo sapiens) | IC50 ([8]; Homo sapiens) | IC50 ([9]; Homo sapiens) | IC50 ([10]; Homo sapiens, OCI-AML-3) | IC50 ([11]; Homo sapiens) | IC50 ([12]; Homo sapiens, U-937) | anti-proliferative activity in HL-60 cells [4] | also measured
CCN(CC)CCNC(=O)c1c(C)[nH]c(/C=C2\C(=O)Nc3ccc(F)cc32)c1C [Sunitinib] | 2.54 µM | 10 nM | 1560 nM | 1.46 µM | 2.61 µM | 4.75 µM | 1.8 µM | 1.62 µM | 10 nM | 1.02 µM | 2.39 µM | 1.16 µM |  | 
CC1=C(C(=O)Nc2cc3cn[nH]c3cc2F)C(c2ccc(C(F)(F)F)cc2)CC(=O)N1 (stereo not shown) [RHO-15] |  |  |  |  |  |  |  |  |  |  |  |  |  | IC50 [1]: > 10 µM; IC50 [2]: 190 nM; IC50 [3]: 2110 nM; IC50 [4]: > 10 µM; IC50 [5]: > 10 µM; IC50 [6]: 7.75 µM; IC50 [7]: > 10 µM; IC50 [8]: > 10 µM; IC50 [9]: 7220 nM; IC50 [10]: > 10 µM; IC50 [11]: 5.14 µM; IC50 [12]: 9.64 µM
NC(=O)c1ccc(N(C(N)=O)c2c(F)cccc2F)nc1-c1ccc(F)cc1F [VX702] | > 10 µM | 5500 nM | > 10000 nM | > 10 µM | > 10 µM | > 10 µM | > 10 µM | > 10 µM | > 10000 nM | > 10 µM | > 10 µM | > 10 µM |  | 
CN(C)CCOc1cc(-c2cn[nH]c2)ccc1NC(=O)C1COc2ccccc2O1 (stereo not shown) [SR3677] | > 10 µM | 750 nM | 1530 nM | 9.1 µM | > 10 µM | > 10 µM | > 10 µM | > 10 µM | 2640 nM | > 10 µM | 8.05 µM | 5.96 µM |  | 
CCc1nc(-c2cccc(C)c2)c(-c2ccnc(NC(=O)c3ccccc3)c2)s1 [TAK-715] | > 10 µM | 2330 nM | 6140 nM | > 10 µM | > 10 µM | 7.41 µM | > 10 µM | 9.58 µM | 7800 nM | > 10 µM | 7.37 µM | 4.11 µM |  | 
CC(=O)Nc1cccc(-n2c(=O)n(C3CC3)c(=O)c3c(Nc4ccc(I)cc4F)n(C)c(=O)c(C)c32)c1 [GSK-1120212] |  |  |  |  |  |  |  |  |  |  |  |  | selective activity | 
CNC(=O)c1cc(Oc2ccc(NC(=O)Nc3ccc(Cl)c(C(F)(F)F)c3)cc2)ccn1 [Sorafenib] | > 10 µM |  | 3790 nM | 5.73 µM | > 10 µM | 9.94 µM | > 10 µM | > 10 µM | 10 nM | 5.46 µM | 6.28 µM | 5.33 µM |  | 
COc1ccc(-c2cc3c(C)nc(N)nc3n([C@H]3CC[C@H](OCCO)CC3)c2=O)cn1 [PF-04691502] |  |  |  |  |  |  |  |  |  |  |  |  | significant anti-proliferative activity | 
CN(C)C1CCN(C(=O)c2ccc(NC(=O)Nc3ccc(-c4nc(N5CCOCC5)nc(N5CCOCC5)n4)cc3)cc2)CC1 [PKI-587] |  |  |  |  |  |  |  |  |  |  |  |  | significant anti-proliferative activity | 
O=C(NOC[C@H](O)CO)c1ccc(F)c(F)c1Nc1ccc(I)cc1F [PD0325901] |  |  |  |  |  |  |  |  |  |  |  |  | potent activity selectively against the HL-60 cell line; also recorded: selective activity | 
COC(=O)c1ccc2c(c1)NC(=O)/C2=C(\Nc1ccc(N(C)C(=O)CN2CCN(C)CC2)cc1)c1ccccc1 [Vargatef] | 3.69 µM |  | 240 nM | 3.55 µM | 2.97 µM | 0.59 µM | 5.85 µM | 2.7 µM | 40 nM | 3.44 µM | 0.46 µM | 6.31 µM |  | 
CS(=O)(=O)N1CCN(Cc2cc3nc(-c4cccc5[nH]ncc45)nc(N4CCOCC4)c3s2)CC1 [GDC-0941] |  |  |  |  |  |  |  |  |  |  |  |  | significant anti-proliferative activity | 
O=C(NOCC1CC1)c1ccc(F)c(F)c1Nc1ccc(I)cc1Cl [CI-1040] |  |  |  |  |  |  |  |  |  |  |  |  | potent activity selectively against the HL-60 cell line; also recorded: selective activity | 
